{"source": "ChEMBL document CHEMBL1201862", "about": "“PubChem BioAssay data set” (2004)", "key": {"[1]": {"test": "blockers of bursicon-stimulated LGR2 cAMP reporter – cell-based, HEK293, CRE-luciferase reporter, cherry pick, set 2, dose response (AID 743343);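 note: transfected cells were stimulated with diluted bursicon conditioned medium after compound addition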", "type": "functional"}, "[2]": {"test": "Luminescence Cell-Based Dose Confirmation HTS to Identify Inhibitors of Platelet Dense Granule Release. [Related pubchem assays: 1663 (Primary HTS), 1678 (Summary of Project)]", "type": "functional"}, "[3]": {"test": "Luminescence Cell-Based Dose Response HTS to Identify Inhibitors of 5'UTR Stem-Loop Driven Prion Protein mRNA Translation in H4 Neuroglioblastoma Cells. [Related pubchem assays: 1827 (Project Summary), 1813 (Primary HTS)]", "type": "functional"}, "[4]": {"test": "blockade of melanocortin 4 receptor signaling – cell-based, plate reader, cherry pick, counter-screen for LGR2 antagonist project, dose response (AID 743444);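 note: transfected HEK 293 cells stimulated with alpha-MSH peptide; potency of inhibitors of the alpha-MSH evoked signal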", "type": "functional"}, "[5]": {"test": "viability loss in HEK293 cells – cell-based, plate reader, cherry-picked samples, cytotoxicity control, dose response (AID 743446)", "type": "functional"}, "BJ [6]": {"tested_on": "BJ", "test": "BJ-TERT-LT-ST fibroblast viability loss – cell-based, RAS-independent, luminescence, dose response (AID 1935);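 note: BJ fibroblasts immortalized with TERT plus LT and ST oncogenes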", "type": "functional", "settings": "Homo sapiens"}, "BJ [7]": {"tested_on": "BJ", "test": "BJ-TERT fibroblast viability loss – cell-based, RAS-independent, luminescence, dose response (AID 1933)", "type": "functional", "settings": "Homo sapiens"}, "[8]": {"test": "toxicity toward HepG2 liver cells – cell-based, plate reader, cherry-pick, antagonist series, cytotoxicity control, dose response (AID 743416)", "type": "functional"}, "[9]": {"test": "A549 cell cytotoxicity, dose response, cytotoxicity control, plate reader, cherry-pick, antagonist series (AID 743412)", "type": "functional, cell-based"}, "BJ [10]": {"tested_on": "BJ", "test": "cells", "type": "functional, cell-based", "settings": "Homo sapiens"}, "[11]": {"test": "alpha-synuclein stem-loop luciferase translation blockers – H4 neuroglioma cells, luminescence, confirmation (AID 1988)", "type": "functional, cell-based"}, "[12]": {"biological_target": "Luciferin 4-monooxygenase (Photinus pyralis, UniProt P08659)", "sequence (P08659 whole entry)": "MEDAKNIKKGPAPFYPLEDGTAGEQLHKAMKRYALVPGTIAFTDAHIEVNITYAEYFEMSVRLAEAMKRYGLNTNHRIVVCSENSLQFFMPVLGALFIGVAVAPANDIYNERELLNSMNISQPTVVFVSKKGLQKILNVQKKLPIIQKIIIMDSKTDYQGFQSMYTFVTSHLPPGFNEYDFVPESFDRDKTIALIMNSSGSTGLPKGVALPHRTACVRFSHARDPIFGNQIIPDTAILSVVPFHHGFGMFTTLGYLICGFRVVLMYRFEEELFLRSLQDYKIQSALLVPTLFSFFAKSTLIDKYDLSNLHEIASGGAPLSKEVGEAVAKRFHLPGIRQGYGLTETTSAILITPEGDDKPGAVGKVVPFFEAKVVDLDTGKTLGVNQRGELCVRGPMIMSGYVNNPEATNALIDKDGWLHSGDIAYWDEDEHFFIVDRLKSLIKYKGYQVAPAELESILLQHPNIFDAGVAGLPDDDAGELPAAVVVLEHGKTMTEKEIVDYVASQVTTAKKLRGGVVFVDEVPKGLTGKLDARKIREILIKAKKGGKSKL", "test": "inhibition of purified Photinus pyralis luciferase – biochemical, luminescence, dose response (AID 1891)"}, "[13]": {"test": "DRD fibroblast viability loss – cell-based, non-viral oncogenic, luminescence, dose response (AID 1934)", "type": "functional", "settings": "Homo sapiens"}, "[14]": {"biological_target": "T1, DNA repair and recombination protein RAD54-like (Homo sapiens, UniProt Q92698)", "T1 sequence (Q92698 whole entry)": "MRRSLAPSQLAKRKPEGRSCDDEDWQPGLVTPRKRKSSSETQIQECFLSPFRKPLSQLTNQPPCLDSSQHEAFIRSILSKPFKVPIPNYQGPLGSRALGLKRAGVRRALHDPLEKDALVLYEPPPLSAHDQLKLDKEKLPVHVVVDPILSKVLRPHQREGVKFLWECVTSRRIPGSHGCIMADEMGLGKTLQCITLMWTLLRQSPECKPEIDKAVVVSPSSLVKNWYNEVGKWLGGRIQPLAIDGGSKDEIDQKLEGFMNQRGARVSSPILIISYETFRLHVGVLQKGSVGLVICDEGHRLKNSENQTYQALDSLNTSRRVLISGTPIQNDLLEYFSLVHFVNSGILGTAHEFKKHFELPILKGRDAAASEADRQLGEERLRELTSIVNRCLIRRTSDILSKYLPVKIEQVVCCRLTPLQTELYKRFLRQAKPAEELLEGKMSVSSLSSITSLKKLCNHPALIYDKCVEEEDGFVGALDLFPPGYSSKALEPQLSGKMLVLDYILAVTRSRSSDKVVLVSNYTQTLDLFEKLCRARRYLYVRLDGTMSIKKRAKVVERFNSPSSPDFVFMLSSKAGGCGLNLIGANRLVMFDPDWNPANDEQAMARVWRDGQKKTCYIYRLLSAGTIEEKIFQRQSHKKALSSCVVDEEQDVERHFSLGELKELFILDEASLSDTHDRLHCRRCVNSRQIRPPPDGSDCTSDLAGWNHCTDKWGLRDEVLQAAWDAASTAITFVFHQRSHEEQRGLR", "test": "RAD54 Holliday junction migration blockers – biochemical, fluorescence, cherry-picked samples, dose series, confirmation (AID 651657)", "type": "functional"}, "[15]": {"biological_target": "T2, Replicative DNA helicase DnaB (Mycobacterium tuberculosis, UniProt P9WMR3)", "T2 sequence (P9WMR3 whole entry)": "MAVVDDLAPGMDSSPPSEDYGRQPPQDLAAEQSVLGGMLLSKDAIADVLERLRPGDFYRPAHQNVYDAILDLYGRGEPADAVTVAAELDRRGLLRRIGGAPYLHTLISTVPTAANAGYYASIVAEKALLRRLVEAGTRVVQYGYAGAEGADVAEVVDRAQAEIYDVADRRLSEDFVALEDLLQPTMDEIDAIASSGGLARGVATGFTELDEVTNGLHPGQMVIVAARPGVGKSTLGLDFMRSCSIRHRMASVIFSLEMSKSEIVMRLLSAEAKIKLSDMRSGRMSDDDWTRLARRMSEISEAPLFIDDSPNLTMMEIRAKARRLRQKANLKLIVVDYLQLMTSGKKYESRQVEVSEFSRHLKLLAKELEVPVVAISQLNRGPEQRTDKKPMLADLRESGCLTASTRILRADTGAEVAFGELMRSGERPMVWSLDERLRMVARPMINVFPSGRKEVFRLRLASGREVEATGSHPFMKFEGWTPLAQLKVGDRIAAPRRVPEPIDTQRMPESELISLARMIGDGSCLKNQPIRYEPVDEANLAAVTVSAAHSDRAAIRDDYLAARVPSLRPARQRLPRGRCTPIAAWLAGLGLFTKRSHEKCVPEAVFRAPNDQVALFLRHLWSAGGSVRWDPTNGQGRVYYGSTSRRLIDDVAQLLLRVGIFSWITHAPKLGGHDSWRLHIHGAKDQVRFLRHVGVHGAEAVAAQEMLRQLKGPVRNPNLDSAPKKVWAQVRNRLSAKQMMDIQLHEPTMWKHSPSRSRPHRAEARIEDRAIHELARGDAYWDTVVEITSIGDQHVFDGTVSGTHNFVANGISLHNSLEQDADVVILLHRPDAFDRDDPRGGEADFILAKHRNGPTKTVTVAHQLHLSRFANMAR", "test": "DnaB intein splicing inhibitors, dose response, biochemical, cell-free fluorescence (AID 449749)", "type": "functional"}, "[16]": {"biological_target": "T3, Microphthalmia-associated transcription factor (Homo sapiens, UniProt O75030)", "T3 sequence (O75030 whole entry)": "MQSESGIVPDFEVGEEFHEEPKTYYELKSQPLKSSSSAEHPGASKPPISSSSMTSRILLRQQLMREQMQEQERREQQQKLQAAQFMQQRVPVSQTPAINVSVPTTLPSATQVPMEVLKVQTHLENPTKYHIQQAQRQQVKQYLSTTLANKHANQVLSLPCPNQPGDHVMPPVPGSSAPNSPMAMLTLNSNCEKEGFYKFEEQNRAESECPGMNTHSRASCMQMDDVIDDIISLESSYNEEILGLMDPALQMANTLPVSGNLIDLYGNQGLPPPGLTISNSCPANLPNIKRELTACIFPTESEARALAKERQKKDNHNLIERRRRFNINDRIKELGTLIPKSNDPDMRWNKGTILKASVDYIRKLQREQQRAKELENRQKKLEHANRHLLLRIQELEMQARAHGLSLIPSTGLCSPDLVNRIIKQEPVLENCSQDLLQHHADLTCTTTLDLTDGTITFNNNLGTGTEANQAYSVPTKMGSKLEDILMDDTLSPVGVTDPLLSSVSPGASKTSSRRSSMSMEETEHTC", "test": "reducers of TRPM1 reporter luminescence, concentration series – cell-based, SK-MEL-5, cherry-picked, set 3, MITF inhibitor project, dose response (AID 493073)", "type": "functional"}, "Protein RecA": {"biological_target": "T4, Protein RecA (Mycobacterium tuberculosis, UniProt P9WHJ3)", "T4 sequence (P9WHJ3 whole entry)": "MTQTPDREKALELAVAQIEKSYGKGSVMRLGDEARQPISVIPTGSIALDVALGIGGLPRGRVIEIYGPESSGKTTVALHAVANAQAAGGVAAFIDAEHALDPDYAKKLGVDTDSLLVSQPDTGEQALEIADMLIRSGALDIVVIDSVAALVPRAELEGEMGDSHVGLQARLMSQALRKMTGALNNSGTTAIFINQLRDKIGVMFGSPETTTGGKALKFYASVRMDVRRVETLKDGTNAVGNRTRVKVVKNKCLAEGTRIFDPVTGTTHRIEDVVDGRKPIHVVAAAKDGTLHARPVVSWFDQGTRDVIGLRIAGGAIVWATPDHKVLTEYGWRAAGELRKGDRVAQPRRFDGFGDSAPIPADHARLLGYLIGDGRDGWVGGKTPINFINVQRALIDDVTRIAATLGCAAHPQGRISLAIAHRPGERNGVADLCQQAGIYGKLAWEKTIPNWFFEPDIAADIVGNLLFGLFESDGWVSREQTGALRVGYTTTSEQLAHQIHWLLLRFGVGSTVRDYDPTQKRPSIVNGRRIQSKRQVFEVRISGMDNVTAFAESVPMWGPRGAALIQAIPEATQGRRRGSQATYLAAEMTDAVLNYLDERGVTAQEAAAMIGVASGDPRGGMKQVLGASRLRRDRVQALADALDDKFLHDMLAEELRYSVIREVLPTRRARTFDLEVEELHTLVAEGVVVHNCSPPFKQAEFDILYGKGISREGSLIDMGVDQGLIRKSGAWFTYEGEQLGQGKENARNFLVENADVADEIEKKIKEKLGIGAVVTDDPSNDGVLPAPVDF", "test": "Fluorescence Cell-Free Homogeneous Dose Retest to Identify Inhibitors of RecA-Intein Splicing Activity. [Related pubchem assays (depositor defined):AID2097, AID2223, AID489010, AID492950]", "type": "functional"}, "[17]": {"test": "viability of PTEN-deleted HCT116 cells – cell-based, HCT116 PTEN knockout, dose response (AID 1047);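 note: HCT116 colon tumor cells with PTEN knocked out; cells exposed to compound for 60 hours before readout; potency for loss of cell viability measured by luminescence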", "type": "functional"}, "[18]": {"test": "viability of HCT116 lacking mutant beta-catenin – cell-based, human colon tumor, dose response (AID 1045);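 note: HCT116 colon tumor cells with beta catenin knocked out; cells exposed to compound for 60 hours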", "type": "functional"}, "[19]": {"biological_target": "T5, Sentrin-specific protease 8 (Homo sapiens, UniProt Q96LD8)", "T5 sequence (Q96LD8 whole entry)": "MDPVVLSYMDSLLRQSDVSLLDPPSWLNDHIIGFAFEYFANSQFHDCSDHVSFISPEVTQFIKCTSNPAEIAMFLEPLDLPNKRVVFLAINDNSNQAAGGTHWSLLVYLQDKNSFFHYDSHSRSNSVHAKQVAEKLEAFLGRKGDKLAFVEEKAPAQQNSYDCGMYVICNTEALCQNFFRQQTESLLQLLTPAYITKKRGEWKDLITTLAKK", "type": "functional"}, "[20]": {"biological_target": "T5, Sentrin-specific protease 8", "type": "functional", "remark": "listed apart in the source"}}, "note": "The source made the active and inactive calls.", "data": [{"smiles": "Cc1cccc(-c2nc3cc(NC(=O)C4CCCO4)ccc3o2)c1", "note": "(configuration not stated)", "values": [{"measurement": "AC50", "setting": "[1]", "value": "9.84 µM (active)"}, {"measurement": "EC50", "setting": "[2]", "value": "1.57 µM (active)"}, {"measurement": "EC50", "setting": "[3]", "value": "9.83 µM (active)"}, {"measurement": "AC50", "setting": "[4]", "value": "6.37 µM (active)"}, {"measurement": "AC50", "setting": "[5]", "value": "26.9 µM (active)"}, {"measurement": "EC50", "setting": "BJ [6]", "value": "> 150 µM (not active)"}, {"measurement": "EC50", "setting": "BJ [7]", "value": "23.3 µM (active)"}, {"measurement": "AC50", "setting": "[8]", "value": "33.8 µM (active)"}, {"measurement": "AC50", "setting": "[9]", "value": "43.3 µM (active)"}, {"measurement": "EC50", "setting": "BJ [10]", "value": "19.8 µM (active)"}, {"measurement": "EC50", "setting": "[11]", "value": "9.78 µM (active)"}, {"measurement": "EC50", "setting": "[12]", "value": "1.51 µM (active)"}, {"measurement": "EC50", "setting": "[13]", "value": "17 µM (active)"}]}, {"smiles": "Cn1c2ccc(F)cc2c2ncn(CCCN(CCO)CCO)c(=O)c21", "values": [{"measurement": "AC50", "setting": "[14]", "value": "28 µM (active)"}]}, {"smiles": "Cn1c(=O)c([N+](=O)[O-])c(-n2ccnc2)c2ccccc21", "values": [{"measurement": "AC50", "setting": "[15]", "value": "6.67 µM (active)"}, {"measurement": "AC50", "setting": "[16]", "value": "6.6 µM (active)"}, {"measurement": "EC50", "setting": "Protein RecA", "value": "6.43 µM (active)"}]}, {"smiles": "CCN(CC)CCCNc1nc2cc(OC)c(OC)cc2c2nc(-c3cccnc3)nn12", "values": [{"measurement": "EC50", "setting": "[17]", "value": "8.62 µM (active)"}, {"measurement": "EC50", "setting": "[18]", "value": "7.33 µM (active)"}, {"measurement": "AC50", "setting": "[14]", "value": "2.15 µM (active)"}]}, {"smiles": "CC1(OC(=O)CCc2ccccc2)C(=O)C=C2C=C3CCCN3C=C2C1=O", "note": "(configuration not stated)", "values": [{"measurement": "IC50", "setting": "[19]", "value": "12.1 µM (active)"}, {"measurement": "IC50", "setting": "[20]", "value": "18.1 µM (active)"}]}, {"smiles": "C[C@@H]1CN([C@H](C)CO)C(=O)Cc2cc(NC(=O)CCC(F)(F)F)ccc2O[C@@H]1CN(C)CC1CCCCC1", "values": [{"measurement": "AC50", "setting": "[5]", "value": "> 52 µM (inactive)"}, {"measurement": "AC50", "setting": "[8]", "value": "> 52 µM (inactive)"}, {"measurement": "AC50", "setting": "[9]", "value": "47.9 µM (active)"}]}, {"smiles": "COC/C=C/C1=CC2=CC(=O)C(C)(OC(=O)c3cnc4ccccc4n3)C(=O)C2=CN1CCCCO", "note": "(configuration not stated)", "values": [{"measurement": "IC50", "setting": "[19]", "value": "6.81 µM (active)"}, {"measurement": "IC50", "setting": "[20]", "value": "17.6 µM (active)"}]}]}
